Results taken from publication PMC7449246, “Natural HDAC‐1/8 inhibitor baicalein exerts therapeutic effect in CBF‐AML” (Clinical and Translational Medicine, 2020).

Tests used:
[1] = target: T1, HDAC-8 (Homo sapiens, UniProt Q9BY41); assay: fluorogenic deacetylase assay with purified HDAC; supported by CETSA in ME-1 cells (Tagg […] to […] °C); type: biochemical
T1 construct: gene HDAC8
T1 sequence (Q9BY41 1-377): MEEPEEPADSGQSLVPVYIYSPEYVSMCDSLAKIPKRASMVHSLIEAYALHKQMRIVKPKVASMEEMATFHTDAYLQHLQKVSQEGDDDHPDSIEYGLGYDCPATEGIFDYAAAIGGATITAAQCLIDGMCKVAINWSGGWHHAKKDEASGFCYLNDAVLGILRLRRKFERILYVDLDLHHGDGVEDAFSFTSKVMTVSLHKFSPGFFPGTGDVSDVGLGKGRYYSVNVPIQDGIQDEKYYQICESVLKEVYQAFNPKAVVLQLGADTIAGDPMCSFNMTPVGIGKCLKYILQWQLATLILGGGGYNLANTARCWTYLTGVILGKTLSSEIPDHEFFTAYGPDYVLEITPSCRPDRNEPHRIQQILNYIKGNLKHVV

[2] = target: T2, HDAC-1 (Homo sapiens, UniProt Q13547); assay: as above; type: biochemical
T2 construct: gene HDAC1
T2 sequence (Q13547 whole entry): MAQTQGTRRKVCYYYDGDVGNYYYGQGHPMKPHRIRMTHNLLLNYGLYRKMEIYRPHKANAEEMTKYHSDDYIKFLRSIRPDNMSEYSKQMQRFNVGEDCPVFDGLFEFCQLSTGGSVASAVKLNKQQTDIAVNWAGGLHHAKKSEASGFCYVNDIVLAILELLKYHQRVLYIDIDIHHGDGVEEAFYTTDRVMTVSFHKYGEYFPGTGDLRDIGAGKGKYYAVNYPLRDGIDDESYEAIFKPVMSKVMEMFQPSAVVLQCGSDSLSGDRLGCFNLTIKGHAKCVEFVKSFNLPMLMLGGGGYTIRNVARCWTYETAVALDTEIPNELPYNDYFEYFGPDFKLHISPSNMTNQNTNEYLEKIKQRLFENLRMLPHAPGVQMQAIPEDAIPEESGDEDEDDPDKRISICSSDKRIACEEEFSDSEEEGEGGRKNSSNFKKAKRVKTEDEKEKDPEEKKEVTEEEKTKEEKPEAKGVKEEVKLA

O=c1cc(-c2ccccc2)oc2cc(O)c(O)c(O)c12 [Baicalein]
IC50 [1]: 3.95 µM | IC50 [2]: 46.7 µM
